Results published in PubChem BioAssay (NCI).
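GI50 marks 50% less growth. TGI marks complete inhibition of growth.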

Tests used:
Assay in all cases: DTP human tumour cell line panel, 384-well format
[1] = tested on: MDA-MB-468 breast
[2] = tested on: A549 NSCLC
[3] = tested on: M14 melanoma
[4] = tested on: HT29 colon
[5] = tested on: OVCAR-8 ovarian
[6] = tested on: SK-OV-3 ovarian
[7] = tested on: RPMI-8226 leukemia
[8] = tested on: SF-539 CNS
[9] = tested on: SF-295 CNS
[10] = tested on: HOP-92 NSCLC
[11] = tested on: DU-145 prostate
[12] = tested on: EKVX NSCLC
[13] = tested on: HCT-116 colon
[14] = tested on: UACC-62 melanoma
[15] = tested on: KM12 colon
[16] = tested on: OVCAR-3 ovarian
[17] = tested on: OVCAR-5 ovarian
[18] = tested on: NCI-H522 lung
[19] = tested on: MDA-MB-231 breast
[20] = tested on: HCC-2998 colon
[21] = tested on: SNB-75 CNS
[22] = tested on: NCI-H460 NSCLC
[23] = tested on: NCI-H23 lung
[24] = tested on: SK-MEL-28 melanoma
[25] = tested on: HCT-15 colon
[26] = tested on: COLO 205 colon
[27] = tested on: ACHN renal
[28] = tested on: MALME-3M melanoma
[29] = tested on: IGROV1 ovarian
[30] = tested on: SR leukemia
[31] = tested on: T-47D breast
[32] = tested on: MCF7 breast
[33] = tested on: NCI-H322M lung
[34] = tested on: SN12C renal
[35] = tested on: SF-268 CNS
[36] = tested on: BT-549 breast
[37] = tested on: NCI-H226 lung
[38] = tested on: CAKI-1 renal
[39] = tested on: U251 glioblastoma
[40] = tested on: RXF 393 renal
[41] = tested on: OVCAR-4 ovarian
[42] = tested on: MDA-MB-435 melanoma
[43] = tested on: HL-60(TB) leukemia
[44] = tested on: SNB-19 CNS
[45] = tested on: NCI/ADR-RES ovarian
[46] = tested on: PC-3 prostate
[47] = tested on: HS 578T breast
[48] = tested on: HOP-62 NSCLC
[49] = tested on: SK-MEL-5 melanoma
[50] = tested on: A498 renal
[51] = tested on: UACC-257 melanoma
[52] = tested on: LOX IMVI melanoma
[53] = tested on: TK-10 renal
[54] = tested on: MOLT-4 leukemia

COC(=O)c1ccc2c(c1)nc(NC(=O)c1ccccc1)n2CCCc1ccccc1
GI50 [1]: 2.19 µM
TGI [1]: > 100 µM
GI50 [2]: 3.61 µM
TGI [2]: > 100 µM
GI50 [3]: 0.519 µM
TGI [3]: 3.05 µM
GI50 [4]: 2.72 µM
TGI [4]: > 100 µM
GI50 [5]: 1.58 µM
TGI [5]: 5.25 µM
GI50 [6]: 0.973 µM
TGI [6]: > 100 µM
GI50 [7]: 1.5 µM
TGI [7]: 4.6 µM
GI50 [8]: 2.13 µM
TGI [8]: 18 µM
GI50 [9]: 3.11 µM
TGI [9]: > 100 µM
GI50 [10]: 3.93 µM
TGI [10]: > 100 µM
GI50 [11]: 1.77 µM
TGI [11]: 24.4 µM
GI50 [12]: 1.46 µM
TGI [12]: > 100 µM
GI50 [13]: 0.852 µM
TGI [13]: > 100 µM
GI50 [14]: 2.45 µM
TGI [14]: > 100 µM
GI50 [15]: 2.33 µM
TGI [15]: > 100 µM
GI50 [16]: 1.84 µM
TGI [16]: 69.4 µM
GI50 [17]: 3.94 µM
TGI [17]: 31.6 µM
GI50 [18]: 1.49 µM
TGI [18]: 9.61 µM
GI50 [19]: 7.06 µM
TGI [19]: > 100 µM
GI50 [20]: 1.85 µM
TGI [20]: > 100 µM
GI50 [21]: 3.91 µM
TGI [21]: 66.8 µM
GI50 [22]: 0.342 µM
TGI [22]: 1.14 µM
GI50 [23]: 1.86 µM
TGI [23]: > 100 µM
GI50 [24]: 3.12 µM
TGI [24]: > 100 µM
GI50 [25]: 0.478 µM
TGI [25]: 4 µM
GI50 [26]: 2.04 µM
TGI [26]: 5.78 µM
GI50 [27]: 3.99 µM
TGI [27]: 31.7 µM
GI50 [28]: 2.9 µM
TGI [28]: > 100 µM
GI50 [29]: 2.04 µM
TGI [29]: > 100 µM
GI50 [30]: 0.203 µM
TGI [30]: 0.44 µM
GI50 [31]: 4.13 µM
TGI [31]: > 100 µM
GI50 [32]: 1.65 µM
TGI [32]: > 100 µM
GI50 [33]: 0.884 µM
TGI [33]: 8.59 µM
GI50 [34]: 2.38 µM
TGI [34]: 8.75 µM
GI50 [35]: 1.81 µM
TGI [35]: > 100 µM
GI50 [36]: 0.741 µM
TGI [36]: 6.46 µM
GI50 [37]: 3.41 µM
TGI [37]: 48.9 µM
GI50 [38]: 6.36 µM
TGI [38]: > 100 µM
GI50 [39]: 0.673 µM
TGI [39]: 11.3 µM
GI50 [40]: 3.11 µM
TGI [40]: > 100 µM
GI50 [41]: 11.5 µM
TGI [41]: 65.9 µM
GI50 [42]: 4.03 µM
TGI [42]: > 100 µM
GI50 [43]: 0.413 µM
TGI [43]: 1.75 µM
GI50 [44]: 2.21 µM
TGI [44]: 20 µM
GI50 [45]: 0.458 µM
TGI [45]: 2.16 µM
GI50 [46]: 4.95 µM
TGI [46]: > 100 µM
GI50 [47]: 6.95 µM
TGI [47]: > 100 µM
GI50 [48]: 0.469 µM
TGI [48]: 3.55 µM
GI50 [49]: 0.395 µM
TGI [49]: 1.67 µM
GI50 [50]: 2.08 µM
TGI [50]: 15.9 µM
GI50 [51]: 2.32 µM
TGI [51]: 9.95 µM
GI50 [52]: 0.946 µM
TGI [52]: 2.81 µM
GI50 [53]: 2.63 µM
TGI [53]: 34.5 µM
GI50 [54]: 0.222 µM
TGI [54]: 0.413 µM
